{"source": "patent US10562920B2", "about": "“Ln(III) and Ga(III) metallacrown complexes” (The Regents of the University of Michigan, priority 2015, dated 2020)", "type_in_all_cases": "physicochemical", "key": {"[1]": {"assay": "Quantum yields by absolute method using an integration sphere", "details": "for QLn^L/%: Ga6Ln(shi)9, solid state", "procedure": "(§1) Luminescence data were collected on samples placed into 2.4 mm i.d. quartz capillaries or quartz Suprasil cells. Emission and excitation spectra were measured on a Horiba-Jobin-YvonFluorolog 3 spectrofluorimeter equipped with either a visible photomultiplier tube (PMT) (220-800 nm, R928P; Hamamatsu), a NIR solid-state InGaAs detector cooled to 77 K (800-1600 nm, DSS-IGA020L; Jobin-Yvon), or NIR PMTs (950-1450 nm, H10330-45; 950-1650 nm, H10330-75; Hamamatsu). All spectra were corrected for instrumental functions. Luminescence lifetimes were determined under excitation at 355 nm provided by a Nd:YAG laser (YG 980; Quantel), while the signal was detected in the NIR by the aforementioned PMT (H10330-75). The output signal from the detectors was then fed to a 500 MHz bandpass digital oscilloscope (TDS 754C; Tektronix) and then transferred to a PC for treatment with Origin 8®. Luminescence lifetimes are averages of at least three independent measurements. Quantum yields were determined with a Fluorolog 3 spectrofluorimeter according to an absolute method using an integration sphere (GMP SA). Each sample was measured several times under slightly different experimental conditions. Estimated experimental error for quantum yields determination is 10%."}, "[2]": {"assay": "Emission spectra under ligand excitation at 350 nm", "details": "Ga8Ln2(shi)8, solid state", "procedure": "as §1\nUsing an excitation wavelength of 350 nm, both visible and NIR emission arising from f-f transitions of different lanthanide ions can be observed (FIG. 13). In general, quantum yields are lower for Ga8Ln2(shi)8 MCs compared to […] (Table 3) except for Ho^3+ analogues which quantum yield is increased by 1.65 times reaching 3.3(1)·10^−3%."}, "[3]": {"assay": "Luminescence lifetimes under excitation at 355 nm", "details": "for τobs/μs: Ga8Ln2(shi)8, solid state", "procedure": "as §1"}, "[4]": {"assay": "Ligand triplet state from phosphorescence of Gd3+ analogues", "details": "T1 = 22 170 cm^−1; Ga4Ln(shi)4", "procedure": "as §1\nPhosphorescence can be observed by recording the signal emitted from Ga4Gd(shi)4 in time-resolved mode in the solid state at 77K upon excitation at 350 nm and using a 200 μS delay after the excitation flash (FIG. 9). The 0-0 component of this band represents the energy level of the ligand's triplet state (T1=22,170 cm^−1, 451 nm) which is attributed to the energy level responsible for the main contribution of the transfer to the Ln^3+. The T1 level is sufficiently high in energy to populate the excited states of a wide range of visible and NIR-emitting Ln^3+.\nSince the Ga8Ln2(shi)8 dimer compounds were insoluble in all solvents, the solid state photophysical data alone were collected. As with the Ga4Gd(shi)4 compound, the Ga8Gd2(shi)8 complex may be used to examine the ligand-based photophysical properties. […] The solid state ligand phosphorescence was obtained at 77 K using an excitation wavelength of 350 nm and a 100 μs delay (FIG. 11). The profile of the phosphorescence is similar to that of Ga4Gd(shi)4 (FIG. 9), which was expected, since both compounds are formed by the same framework ligand, H3shi. The 0-0 transition was determined to be located at 455 nm, or 21 978 cm^−1. This triplet state energy is slightly lower than that of the Ga4Gd(shi)4 compound (22 170 cm^−1), but still is sufficiently high in energy to sensitize visible (Dy^3+, Tb^3+, Sm^3+) and/or NIR emitting (Dy^3+, Sm^3+, Ho^3+, Yb^3+, Pr^3+, Nd^3+, Er^3+) lanthanides."}, "[5]": {"assay": "Hydration number q from lifetimes in deuterated and protic solvents", "details": "from kCH3OH − kCD3OD, equations of footnotes b, c, e, g", "from_the_text": "One parameter that can be obtained from the recording of luminescence lifetimes is the hydration number q. […] This non-zero q value is particularly detrimental for the intensity of the luminescence (and to the corresponding quantum yield values) of NIR-emitting lanthanides since the overtones of high-energy vibrations of the solvent molecules create a route for non-radiative deactivation."}, "[6]": {"details": "Ga8Ln2(shi)8, solid state, excitation 350 nm"}}, "note": "Marks after values point to notes of the source that are not given here."}
{"substance": "[Ga8Sm2(shi)8(isophthalate)4(DMF)6].8DMF.2H2O", "values": [{"measurement": "QLn^L (%) (NIR)", "setting": "[1]; [6]", "result": "0.269(3) %"}, {"measurement": "QLn^L (%) (visible)", "setting": "[1]; [6]", "result": "2.09(5) %"}, {"measurement": "λem/nm", "setting": "[2]", "result": 597, "unit": "nm"}, {"measurement": "τobs/μs", "setting": "[3]", "result": "117(1) μs"}]}
{"substance": "[Ga8Tb2(shi)8(isophthalate)4(DMF)6].8DMF.H2O", "values": [{"measurement": "QLn^L (%) (visible)", "setting": "[1]; [6]", "result": "31.2(2) %"}, {"measurement": "λem/nm", "setting": "[2]", "result": 545, "unit": "nm"}, {"measurement": "τobs/μs", "setting": "[3]", "result": "1410(1) μs"}]}
{"substance": "[Ga8Yb2(shi)8(isophthalate)4(DMF)6].8DMF.3H2O", "values": [{"measurement": "QLn^L (%) (NIR)", "setting": "[1]; [6]", "result": "2.43(6) %"}, {"measurement": "λem/nm", "setting": "[2]", "result": 980, "unit": "nm"}, {"measurement": "τobs/μs", "setting": "[3]", "result": "30.5(1) μs"}]}
{"substance": "[HoGa4(shi)4(C6H5CO2)4(C5H5N)(CH3OH)].C5H6N.C5H5N.CH3OH [Ga4Ho(shi)4]", "values": [{"measurement": "QLn^L (%) (NIR)", "setting": "[1]; Ga4Ln(shi)4, Solid", "result": "2.0(2)·10^−3%"}, {"measurement": "τobs (μs)", "setting": "[3]; Ga4Ln(shi)4, Solid", "result": "0.029(1) μs"}, {"measurement": "ΔE (cm^−1), energy gap between ligand triplet state and Ln3+ emissive state", "setting": "[4]", "result": "6 670 cm^−1"}]}
{"substance": "[HoGa4(shi)4(H2shi)2(C5H5N)4(NO3)].(C5H5N)2 [Ga4Hoshi6]", "values": [{"measurement": "τ/μs", "setting": "[3]; solid state Ga4Ln(shi)6", "result": "0.032(1) μs"}]}
{"substance": "[HoGa6(shi)7(Hshi)(H2shi)(C6H16N)3(C5H5N)2].8H2O [Ga6Ho(shi)9]", "values": [{"measurement": "QLn^L/%", "setting": "[1]", "result": "1.1(2) · 10^−3%"}, {"measurement": "τ/μs", "setting": "[3]; Ga6Ln(shi)9, solid state", "result": "0.037(1) μs"}]}
{"substance": "[NdGa6(shi)7(Hshi)(H2shi)(C6H16N)3(C5H5N)2].7H2O [Ga6Nd(shi)9]", "values": [{"measurement": "QLn^L/%", "setting": "[1]", "result": "0.171(5) %"}, {"measurement": "τ/μs", "setting": "[3]; Ga6Ln(shi)9, solid state", "result": "0.71(1) μs"}]}
{"substance": "[PrGa6(shi)7(Hshi)(H2shi)(C6H16N)3(C5H5N)2].4H2O [Ga6Pr(shi)9]", "values": [{"measurement": "QLn^L/%", "setting": "[1]", "result": "3.7(2) · 10^−3%"}, {"measurement": "τ/μs", "setting": "[3]; Ga6Ln(shi)9, solid state", "result": "0.063(1) μs"}]}
{"substance": "[SmGa6(shi)7(Hshi)(H2shi)(C6H16N)3(C5H5N)2].6H2O [Ga6Sm(shi)9]", "values": [{"measurement": "QLn^L/%", "setting": "[1]", "result": "1.64(9) %"}, {"measurement": "τ/μs", "setting": "[3]; Ga6Ln(shi)9, solid state", "result": "70(1) μs"}]}
{"substance": "[TbGa4(shi)4(H2shi)2(C5H5N)4(NO3)].(C5H5N)2 [Ga4Tbshi6]", "values": [{"measurement": "QLn^L/% VIS", "setting": "[1]; solid state Ga4Ln(shi)6", "result": "11.3(5) %"}, {"measurement": "τ/μs", "setting": "[3]; solid state Ga4Ln(shi)6", "result": "509(7) μs"}]}
{"substance": "[TbGa6(shi)7(Hshi)(H2shi)(C6H16N)3(C5H5N)2] [Ga6Tb(shi)9]", "values": [{"measurement": "QLn^L/%", "setting": "[1]", "result": "0.189(3) %"}]}
{"substance": "[TmGa4(shi)4(C6H5CO2)4(C5H5N)(CH3OH)].C5H6N.0.5C5H5N [Ga4Tm(shi)4]", "values": [{"measurement": "QLn^L (%) (visible)", "setting": "[1]; Ga4Ln(shi)4, Solid", "result": "0.02(1)^f %"}, {"measurement": "τobs (μs)", "setting": "[3]; Ga4Ln(shi)4, Solid", "result": "1.47(1) μs"}, {"measurement": "ΔE (cm^−1), energy gap between ligand triplet state and Ln3+ emissive state", "setting": "[4]", "result": 820, "unit": "cm⁻¹"}]}
{"substance": "[YbGa4(shi)4(C6H5CO2)4(C5H5N)(CH3OH)].C5H6N.C5H5N.CH3OH [Ga4Yb(shi)4]", "values": [{"measurement": "QLn^L (%) (NIR)", "setting": "[1]; Ga4Ln(shi)4, CD3OD", "result": "4.29(1) %"}, {"measurement": "QLn^L (%) (NIR)", "setting": "[1]; Ga4Ln(shi)4, CH3OH", "result": "0.26(1) %"}, {"measurement": "QLn^L (%) (NIR)", "setting": "[1]; Ga4Ln(shi)4, Solid", "result": "5.88(2) %"}, {"measurement": "q (hydration number)", "setting": "[5]", "result": "0.7^g"}, {"measurement": "τobs (μs)", "setting": "[3]; Ga4Ln(shi)4, CD3OD", "result": "36.6(1) μs"}, {"measurement": "τobs (μs)", "setting": "[3]; Ga4Ln(shi)4, CH3OH", "result": "2.06(4) μs"}, {"measurement": "τobs (μs)", "setting": "[3]; Ga4Ln(shi)4, Solid", "result": "55.7(3) μs"}, {"measurement": "ΔE (cm^−1), energy gap between ligand triplet state and Ln3+ emissive state", "setting": "[4]", "result": "11 870 cm^−1"}]}
{"substance": "[YbGa4(shi)4(H2shi)2(C5H5N)5].(NO3).(C5H5N)2 [Ga4Ybshi6]", "values": [{"measurement": "QLn^L/% NIR", "setting": "[1]; solid state Ga4Ln(shi)6", "result": "0.216(6) %"}, {"measurement": "τ/μs", "setting": "[3]; solid state Ga4Ln(shi)6", "result": "2.99(2) μs"}]}
{"substance": "[YbGa6(shi)7(Hshi)(H2shi)(C6H16N)3(C5H5N)2].8H2O [Ga6Yb(shi)9]", "values": [{"measurement": "QLn^L/%", "setting": "[1]", "result": "0.65(3) %"}, {"measurement": "τ/μs", "setting": "[3]; Ga6Ln(shi)9, solid state", "result": "7.26(2) μs"}]}
